The target in the experiment is T1, HSP90α (Homo sapiens, UniProt P07900).
T1 construct: 6H is tagged HSP90α protein (amino acids 2-732) expressed in E. coli; 6His; made in house; host or cells: E. coli
The experiment in a line: Test (a) In Vitro Binding Assay (fluorescence polarisation, binding to the ATP pocket of HSP90α). To be noted: for IC50: FP probe displacement, geometric mean where tested more than once; for activity in the enzyme assay, test (a): verbal assessment. Here is the method:
Test (a) In Vitro Binding Assay
Test (a) measures the ability of a compound to bind to the ATP pocket of HSP90α. 6H is tagged HSP90α protein (amino acids 2-732) expressed in E. coli was purified and stored at −80° C. in aliquots. Assay measurements were performed in assay buffer comprising 20 mM HEPES pH 7.4, 50 mM KCl, 20 mM NaHMoO4, 0.01% Nonidet P40, 2 mM DTT and 0.1 mg/ml BSA. Following resuspension in DMSO, the FP probe 3-[[5-(5-ethyl-2,4-dihydroxy-phenyl)-4-(4-methoxyphenyl)2H-pyrazole-3-carbonyl]amino]propyl-Cy3B-amide; 14-(2-{[3-({[3-(5-ethyl-2,4-dihydroxyphenyl)-4-(4-methoxyphenyl)-1H-pyrazol-5-yl]carbonyl}amino)propyl]amino}-2-oxoethyl)-16,16,18,18-tetramethyl-2-sulfo-6,7,7a,8a,9,10,16,18-octahydrobenzo[2″,3″]indolizino [8″,7″:5′,6′]pyrano[3′,2′:3,4]pyrido[1,2-a]indol-5-ium) was diluted to a final concentration of 5 nM in assay buffer. Test compounds were prepared by dilution in 100% DMSO to give the appropriate dose range and dispensed into a 384 well assay plate as a 6X concentrate. Upon addition of recombinant HSP90α to a final assay concentration of 1 μg/ml, FP probe was added and plates incubated at room temperature for 1 to 4 hours. Final DMSO concentration was 1% in a total assay volume of 18 μl. Fluorescence Polarisation measurements were made using a Tecan Ultra plate reader using an excitation wavelength of 530 nm and an emission wavelength of 590 nm. Millipolarisation (mP) values were estimated using Xfluor software.
The data in the above table was generated in an assay substantially as described above in relation to in-vitro Binding Assay (a). Some of the compounds shown in the table were tested more than once in the assay. For those compounds the IC50 value shown is the geometric mean of the measured IC50 values. Therefore, as will be understood, the IC50 values quoted above are not absolute and further measurements of the IC50 values may result in a different mean IC50 value.
A general note: Fluorescence polarisation rises when a labelled molecule tumbles more slowly, as on binding a larger partner.

By IC50 is commonly meant the concentration needed to halve the response being measured. The low end stands for greater potency in that assay, the high end for weaker potency in that assay. In turn, `COc1c(C)cnc(CN2c3nc(N)ncc3NC(=O)[C@@H]2C)c1C` [Example 1, (7S)-2-amino-8-[(4-methoxy-3,5-dimethylpyridin-2-yl)methyl]-7-methyl-7,8-dihydropteridin-6(5H)-one] gave a concentration for half-maximal inhibition (IC50) of 10000 nM.
`CCC[C@H]1C(=O)Nc2cnc(N)nc2N1Cc1ncc(C)c(OC)c1C` [Example 2.1, (7S)-2-amino-8-[(4-methoxy-3,5-dimethylpyridin-2-yl)methyl]-7-propyl-7,8-dihydropteridin-6(5H)-one]: the concentration for half-maximal inhibition (IC50) was 14800 nM.
The same measure, in the same setting: the value for `COc1c(C)cnc(CN2c3nc(N)ncc3NC(=O)[C@H]2C)c1C` [Example 2.2, (7R)-2-amino-8-[(4-methoxy-3,5-dimethylpyridin-2-yl)methyl]-7-methyl-7,8-dihydropteridin-6(5H)-one] was 857 nM; that for `COc1c(C)cnc(CN2CC(=O)Nc3cnc(N)nc32)c1C` [Example 2.3, 2-amino-8-[(4-methoxy-3,5-dimethylpyridin-2-yl)methyl]-7,8-dihydropteridin-6(5H)-one] was 1160 nM; that for `COc1c(C)cnc(CN2c3nc(N)ncc3N(C)C(=O)[C@@H]2C)c1C` [Example 3, (7S)-2-amino-8-[(4-methoxy-3,5-dimethylpyridin-2-yl)methyl]-5,7-dimethyl-7,8-dihydropteridin-6(5H)-one] was 18400 nM.
In the case of `CCN1C(=O)[C@H](C)N(Cc2ncc(C)c(OC)c2C)c2nc(N)ncc21` [Example 4.1, (7S)-2-amino-5-ethyl-8-[(4-methoxy-3,5-dimethylpyridin-2-yl)methyl]-7-methyl-7,8-dihydropteridin-6(5H)-one], the IC50 was found to be 16700 nM.
On the same count and under the same terms, the value for `COc1c(C)cnc(CN2c3nc(N)ncc3N(C)C(=O)[C@H]2C)c1C` [Example 4.2, (7R)-2-amino-8-[(4-methoxy-3,5-dimethylpyridin-2-yl)methyl]-5,7-dimethyl-7,8-dihydropteridin-6(5H)-one] was 788 nM.
The same measure, in the same setting: the value for `COc1c(C)cnc(CN2CC(=O)N(C)c3cnc(N)nc32)c1C` [Example 4.3, 2-amino-8-[(4-methoxy-3,5-dimethylpyridin-2-yl)methyl]-5-methyl-7,8-dihydropteridin-6(5H)-one] was 330 nM.
`COc1c(C)cnc(CN2c3nc(N)ncc3NC[C@@H]2C)c1C` [Example 5, (7S)-8-[(4-methoxy-3,5-dimethylpyridin-2-yl)methyl]-7-methyl-5,6,7,8-tetrahydropteridin-2-amine]: the concentration for half-maximal inhibition (IC50) was determined as 81100 nM and the “activity in the enzyme assay, test (a)” value is listed as “low activity”.
As for `COc1c(C)cnc(CN2c3nc(N)ncc3N(C)C[C@@H]2C)c1C` [Example 6.1, (7S)-8-[(4-methoxy-3,5-dimethylpyridin-2-yl)methyl]-5,7-dimethyl-5,6,7,8-tetrahydropteridin-2-amine], the IC50 came out at 152000 nM and the “activity in the enzyme assay, test (a)” value is given as “low activity”.
For the compound `COc1c(C)cnc(CN2c3nc(N)ncc3NC[C@H]2C)c1C` [Example 6.2, (7R)-8-[(4-methoxy-3,5-dimethylpyridin-2-yl)methyl]-7-methyl-5,6,7,8-tetrahydropteridin-2-amine], the IC50 was 2870 nM.
In turn, `COc1c(C)cnc(CN2c3nc(N)ncc3N(C)C[C@H]2C)c1C` [Example 6.3, (7R)-8-[(4-methoxy-3,5-dimethylpyridin-2-yl)methyl]-5,7-dimethyl-5,6,7,8-tetrahydropteridin-2-amine] came in with an IC50 of 15600 nM.
Same read-out and setting: the result for `COc1c(C)cnc(CN2CCN(C)c3cnc(N)nc32)c1C` [Example 6.4, 8-[(4-methoxy-3,5-dimethylpyridin-2-yl)methyl]-5-methyl-5,6,7,8-tetrahydropteridin-2-amine] reads 13000 nM; that for `COc1c(C)cnc(CN2c3nc(N)ncc3NC(=O)[C@H]2CC(C)C)c1C` [Example 7.1, (7R)-2-amino-8-[(4-methoxy-3,5-dimethyl-pyridin-2-yl)methyl]-7-(2-methylpropyl)-7,8-dihydropteridin-6(5H)-one], 1940 nM.
On the same count and under the same terms, the value for `COc1c(C)cnc(CN2c3nc(N)ncc3NC(=O)[C@H]2Cc2ccccc2)c1C` [Example 7.2, (7R)-2-amino-7-benzyl-8-[(4-methoxy-3,5-dimethyl-pyridin-2-yl)methyl]-7,8-dihydropteridin-6(5H)-one] was 526 nM.
The compound `COC(=O)C[C@@H]1C(=O)Nc2cnc(N)nc2N1Cc1ncc(C)c(OC)c1C` [Example 7.3, Methyl {(7R)-2-amino-8-[(4-methoxy-3,5-dimethylpyridin-2-yl)methyl]-6-oxo-5,6,7,8-tetrahydropteridin-7-yl}acetate] gave a half-inhibitory concentration (IC50) of 325 nM.
`CCC[C@@H]1C(=O)Nc2cnc(N)nc2N1Cc1ncc(C)c(OC)c1C` [Example 7.4, (7R)-2-amino-8-[(4-methoxy-3,5-dimethyl-pyridin-2-yl)methyl]-7-propyl-7,8-dihydropteridin-6(5H)-one] showed a half-maximal inhibitory concentration (IC50) of 1800 nM.
`COc1c(C)cnc(CN2CC(=O)Nc3c(Cl)nc(N)nc32)c1C` [Example 8, 2-Amino-4-chloro-8-[(4-methoxy-3,5-dimethyl-pyridin-2-yl)methyl]-5,7-dihydropteridin-6-one] displayed a 50% inhibitory concentration (IC50) of 100 nM.
Same read-out and setting: the result for `COc1c(C)cnc(CN2CC(=O)Nc3c(SC)nc(N)nc32)c1C` [Example 9, 2-Amino-8-[(4-methoxy-3,5-dimethyl-pyridin-2-yl)methyl]-4-methylsulfanyl-5,7-dihydropteridin-6-one] reads 1390 nM; that for `COCCCN1C(=O)[C@@H](C)N(Cc2ncc(C)c(OC)c2C)c2nc(N)ncc21` [Example 10, (7R)-2-Amino-8-[(4-methoxy-3,5-dimethylpyridin-2-yl)methyl]-5-(3-methoxypropyl)-7-methyl-7,8-dihydropteridin-6(5H)-one], 1220 nM.
Same read-out and setting: the result for `COCCCN1C(=O)CN(Cc2ncc(C)c(OC)c2C)c2nc(N)ncc21` [Example 11.1, 2-amino-8-[(4-methoxy-3,5-dimethylpyridin-2-yl)methyl]-5-(3-methoxypropyl)-7,8-dihydropteridin-6(5H)-one] reads 1940 nM.
The same measure, in the same setting: the value for `COc1c(C)cnc(CN2c3nc(N)ncc3N(CCc3ccccc3)C(=O)[C@H]2C)c1C` [Example 11.2, (7R)-2-amino-8-[(4-methoxy-3,5-dimethylpyridin-2-yl)methyl]-7-methyl-5-(2-phenylethyl)-7,8-dihydropteridin-6(5H)-one] was 128 nM; that for `COc1c(C)cnc(CN2c3nc(N)ncc3N(CCN3CCNCC3)C(=O)[C@H]2C)c1C` [Example 11.3, (7R)-2-amino-8-[(4-methoxy-3,5-dimethylpyridin-2-yl)methyl]-7-methyl-5-(2-piperazin-1-ylethyl)-7,8-dihydropteridin-6(5H)-one] was 7830 nM; that for `COc1c(C)cnc(CN2c3nc(N)ncc3N(CC(F)F)C(=O)[C@H]2C)c1C` [Example 11.4, (7R)-2-amino-5-(2,2-difluoroethyl)-8-[(4-methoxy-3,5-dimethylpyridin-2-yl)methyl]-7-methyl-7,8-dihydropteridin-6(5H)-one] was 191 nM.
In turn, `COc1c(C)cnc(CN2CC(=O)N(CCC(C)C)c3cnc(N)nc32)c1C` [Example 11.5, 2-amino-8-[(4-methoxy-3,5-dimethylpyridin-2-yl)methyl]-5-(3-methylbutyl)-7,8-dihydropteridin-6(5H)-one] returned an IC50 of 3780 nM.

(Values after patent publication US7799781B2, “5,6,7,8-tetrahydropteridine derivatives as HSP90 inhibitors” (AstraZeneca AB, priority 2007, dated 2010).)
